From patent publication EP2703003A1, “A pomegranate extract and compositions containing pomegranate polyphenols for treating or preventing diseases or physiopathological conditions associated with an excessive gene expression and/or physiological activity of interleukin-6” (Probelte Biotecnologia S.L., priority 2012, dated 2014)
Read-outs that look alike come from different tables or passages of the source.

How the values were obtained:
[1] = system: dermal papilla hair follicle cells; settings: 24 hours, 270 picog/mL at dose 0
Experimental: In another independent study, in vitro cultures of dermal papilla hair follicle cells grown using DMEM as a culture medium were seeded at a density of 1.5 x 10^5 cells per 50 mm of plate surface and incubated overnight. Then 3 consecutive washes with PBS were performed and DMEM culture medium supplemented with variables amounts of DHT was added to each of the cultures; specifically three doses were tested: 0, 25 and 100 nanoM. The culture medium was sampled after 24 hours to measure the concentration of interleukin-6 by means of ELISA.

[2] = side effect, background statement; cited from earlier work

| SMILES | mean concentration of interleukin-6 in the culture media ([1]; 25 nanoM) [picog/mL] | mean concentration of interleukin-6 in the culture media ([1]; 100 nanoM) [picog/mL] | itchy scalp [2] |
| --- | --- | --- | --- |
| C[C@]12CCC(=O)C[C@@H]1CC[C@@H]1[C@@H]2CC[C@]2(C)[C@@H](O)CC[C@@H]12 [DHT, 5-dihydrotestosterone] | 1270 | 2190 |  |
| Nc1cc(N2CCCCC2)nc(N)[n+]1[O-] [Minoxidil] |  |  | 1.5 % of patients |
